In PMC10920779, “Targeting P2Y14R protects against necroptosis of intestinal epithelial cells through PKA/CREB/RIPK1 axis in ulcerative colitis” (Nature Communications, 2024):
“And” between values parts separate entries of the source, which are not always exact repeats. Identical values can stand only once. “Also recorded” adds a separate entry of the source.

Columns and labels:
[1] = tested on: MLKL, PKA, CREB phosphorylation; assay: Immunoblotting of p-MLKL, p-PKA, p-CREB in colon tissues/IECs of DSS-treated mice; assay type: in vivo, mouse; details: for Activation of cAMP/PKA/CREB pathway (p-PKA, p-CREB): DSS-induced colitis mice; for Necroptosis of IECs (p-MLKL level and TEM imaging): high-dose, 20 μM, during DSS feeding
Method: The data represent the mean ± SD for c, e, and h–l, the data represent the mean ± SEM for b.
Colon tissues derived from the euthanized by carbon dioxide inhalation mice were opened longitudinally and washed in pre-cooling PBS for three times. Then, the tissues were cut into 3 mm^2 pieces and incubated with 5 mM EDTA solution in PBS on a constant temperature shaker at 200 rpm for 25 min at 37°C. Then, let it stand at room temperature for 30 seconds and collected the supernatant. Next, repeated the above process once. Supernatants from the above step were combined and centrifuged at 500 g for 8 min. Abandon the supernatants and obtain IECs.
Tissues and cells were lysed using RIPA lysis buffer (Beyotime Biotechnology) containing protease and phosphatase inhibitor, homogenated, and centrifuged. The protein concentration was determined by BCA protein assay (Beyotime Biotechnology). Equal concentrations of proteins were separated in a 10% SDS-PAGE and transferred to PVDF membrane. The membrane was blocked using 5% milk in TBST, probed with primary antibody, RIPK1 (17519-1-AP, Proteintech, 1:1000), MLKL (GTX107538-100, GeneTex, 1:1000), RIPK3 (17563-1-AP, Proteintech, 1:1000), p-MLKL (EPR9514, Abcam, 1:1000), PKA (bs-0520R, Bioss, 1:1000), p-PKA (#9621, Cell signaling, 1:1000), CREB (AF6188, Affinity, 1:1000), p-CREB (AF3189, Affinity, 1:1000), P2Y14R (bs-12028R, Bioss, 1:1000), GSDMD (ab209845, Abcam, 1:1000), Caspase1 p20 (bs-10442R, Bioss, 1:1000), Bcl-2 (bs-0032R, Bioss, 1:1000), Bax (AF0120, Affinity, 1:1000), Caspase-3 p-17 (Cell Signaling Technology, #9664, 1:1000), β-actin (bs-0061R, Bioss, 1:1000), GAPDH (BS-2188R, Bioss, 1:1000) and corresponding HRP-conjugated antibodies Goat Anti-Rabbit IgG H&L Antibody (bioss, Bs-0295G, 1:8000) or Goat Anti-Mouse IgG H&L Antibody (bioss, Bs-0296G, 1:8000). Densitometry was quantified using ImageJ software.

[2] = tested on: DSS-induced colitis in mice; assay: DSS-induced acute colitis in WT mice, P2Y14R antagonist treatment (body weight, DAI, colon length, H&E, tight junction staining, TEM); assay type: in vivo, mouse; set-up: DAI: scale not given here; details: for Colitis symptoms: daily treatment, 3% DSS mice; for H&E staining: inflammatory infiltration and tissue damage / Tight junction protein expression (immunofluorescence) / Body weight loss and DAI vs DSS-exposed mice / Colon length vs mice treated with DSS only: high-dose, 20 μM; for Body weight loss and DAI vs DSS-exposed mice: daily
Description: Male, 7-8-week-old, P2Y14R^fl/fl Vil-cre (P2Y14R^∆IEC), P2Y14R^fl/fl Lyz2-cre and WT mice with C57BL/6 J background were used to establish experimental (acute) colitis model. P2Y14R^fl/fl C57BL/6 J mice were used as control for P2Y14R^fl/fl Vil-cre (P2Y14R^∆IEC) and P2Y14R^fl/fl Lyz2-cre mice. WT C57BL/6 J mice were used for the pharmacological study of HDL-16. Colitis was induced by dextran sodium sulfate (DSS; 36-50 kDa; 3% w/v; MP Biomedicals, Solon, Ohio, USA), added to the drinking water ad libitum for 7 days. Control mice received standard drinking water. The Disease Activity Index (DAI) was evaluated daily as described previously. After 7 days of DSS treatment, mice were euthanized by carbon dioxide inhalation and the colons were measured and then processed for histological analyses, homogenized to extract protein or RNA.
The DSS group and the P2Y14R^△IEC + DSS group were rectally administered with 100 μl vehicle (saline with 0.1% DMSO). The low-dose group of mice was given 10 μM HDL-16, 100 μl per mouse, while the high-dose group was given 20 μM HDL-16, 100 μl per mouse.
For TEM, harvest fresh tissue blocks quickly within 1-3 minutes. […] Then tissues avoid light post fixed in 1% OsO4 in PBS for 2 h at room temperature. […] The samples were moved into a 65°C oven to polymerize for more than 48 h. Ultrathin sections were cut to 60-80 nm thin with an ultramicrotome UCT6 (Leica Microsystems, Vienna) and placed on 150 meshes cuprum grids (formvar carbon coated Cu grids) with formvar film. […] Micrographs were obtained with a Jeol JEM 1400 plus electron microscope (Jeol, USA) operating at 80 kV.
For histological assessment of colitis, colon specimens were fixed in 4% paraformaldehyde (PFA) and embedded in paraffin. Five-micrometer tissue sections were stained with H&E and examined for evidence of colitis as described previously. After the paraffin sections conventional dewaxing to water, put the sections into Hematoxylin solution for 3-5 min and treat the sections with Hematoxylin Differentiation solution. […] Finally, dehydrated the sections with gradient alcohol and xylene, and sealed with neutral gum. Images were captured with a microscope (BX53, Olympus).
Immunofluorescence staining was performed using paraffin-embedded tissues as mentioned before. For immunofluorescence, the paraffin slides were deparaffinized, rehydrated, blocked and treated according to a standard protocol. […] All slides were incubated with DAPI (S2110, Solarbio) for 10 min to show the location of the nucleus. Images were captured with a confocal microscope (LSM 800, Zeiss).

HT-29 cells = assay: TSZ-induced necroptosis in HT-29 cells (CCK8 viability, PI/Hoechst, H&E staining); assay type: cell-based, human
Method: Necroptosis was induced by pretreatment with TNF‐α (20 ng·mL^−1) plus z‐VAD‐fmk (20 μM) and Smac mimetic (BV6, 2 μM) for 8 h, then stained cells with hematoxylin/eosin. For PI/Hoechst staining, cells were stained with PI and Hoechst for 20 min, then photographed with a fluorescence microscope and at least 300 cells were counted. The ratio of PI positive cells (%) = (PI positive cells) / (Hoechst positive cells) × 100%. For cell viability assay, CCK8 was added to the well and incubated for 1 − 2 h and then OD450 was measured using a multi-mode microplate reader (Cytation5, BioTek).

[3] = DSS-treated mice, group -H (high dose), Figure 7h
[4] = DSS-treated mice, group -L (low dose), Figure 7h
[5] = DSS-treated mice, group -H (high dose), Day 1
[6] = DSS-treated mice, group -L (low dose), Day 1
[7] = 100 μl per mouse, rectal, 3% DSS 7 days

Structure (SMILES): Brc1ccc(NCc2nc3ccccc3o2)cc1 [HDL-16]
- Activation of cAMP/PKA/CREB pathway (p-PKA, p-CREB) [1]: significantly increased the level of p-PKA and p-CREB; also recorded: upregulated the activation of the cAMP/PKA/CREB pathway
- P-MLKL/MLKL [1, 3]: 1.521 and 1.265 and 1.621 and 1.356 and 1.5395
- P-PKA/PKA [1, 3]: 1.707 and 1.759 and 1.709 and 1.416 and 2.236
- p-CREB/CREB [1, 3]: 1.095 and 0.9798 and 1.543 and 0.8826 and 0.8002
- P-MLKL/MLKL [1, 4]: 1.7141 and 1.386 and 1.7276 and 1.656 and 1.549
- P-PKA/PKA [1, 4]: 1.542 and 1.79 and 2.009 and 1.5655 and 1.809
- p-CREB/CREB [1, 4]: 0.8983 and 0.8748 and 1.433 and 0.9557 and 0.9121
- P-MLKL/MLKL ([1]; P2Y14R△IEC mice + DSS + HDL-16-H (high dose), individual replicates): 1.288 and 1.248 and 1.394 and 1.076 and 1.4285
- P-MLKL/MLKL ([1]; P2Y14R△IEC mice + DSS + HDL-16-L (low dose), individual replicates): 1.279 and 1.445 and 1.246 and 1.195 and 1.182
- Necroptosis of IECs (p-MLKL level and TEM imaging) [1]: prominently suppression in necroptosis
- DAI [2, 5]: 0
- Weight (%) [2, 5]: 95.5056% and 101.124% and 106.742%
- Weight (%) ([2]; DSS-treated mice, group -H (high dose), Day 2): 95.5056% and 101.124% and 89.8876% and 106.742%
- Weight (%) ([2]; DSS-treated mice, group -H (high dose), Day 3): 100% and 94.1176% and 94.4444% and 94.7368%
- Weight (%) ([2]; DSS-treated mice, group -H (high dose), Day 4): 94.1176% and 88.2353% and 94.4444% and 88.8889% and 94.7368%
- Weight (%) ([2]; DSS-treated mice, group -H (high dose), Day 5): 94.1176% and 88.2353% and 94.4444% and 83.3333% and 89.4737%
- Weight (%) ([2]; DSS-treated mice, group -H (high dose), Day 6): 88.2353% and 82.3529% and 88.8889% and 83.3333% and 84.2105%
- Weight (%) ([2]; DSS-treated mice, group -H (high dose), Day 7): 88.2353% and 82.3529% and 88.8889% and 77.7778% and 78.9474%
- DAI [2, 6]: 0
- Weight (%) [2, 6]: 100.935% and 95.3271% and 106.542%
- Weight (%) ([2]; DSS-treated mice, group -L (low dose), Day 2): 100.935% and 95.3271% and 89.7196% and 106.542%
- Weight (%) ([2]; DSS-treated mice, group -L (low dose), Day 3): 94.4444% and 94.1176% and 100%
- Weight (%) ([2]; DSS-treated mice, group -L (low dose), Day 4): 100% and 94.4444% and 94.1176% and 94.7368%
- Weight (%) ([2]; DSS-treated mice, group -L (low dose), Day 5): 100% and 94.4444% and 88.2353% and 89.4737% and 88.8889% and 94.1176%
- Weight (%) ([2]; DSS-treated mice, group -L (low dose), Day 6): 100% and 94.4444% and 88.2353% and 89.4737%
- Weight (%) ([2]; DSS-treated mice, group -L (low dose), Day 7): 94.4444% and 88.8889% and 94.1176% and 84.2105% and 88.2353%
- Colitis symptoms [2]: significantly suppressed colitis symptoms
- H&E staining: inflammatory infiltration and tissue damage ([2]; 100 μl per mouse): improved DSS-induced inflammatory infiltration and tissue damage
- Tight junction protein expression (immunofluorescence) ([2]; 100 μl per mouse): stabilized the expression of tight junction protein Claudin-1, Occludin and ZO-1
- Body weight loss and DAI vs DSS-exposed mice [2, 7]: dramatically less body weight loss and lower DAI
- Colon length vs mice treated with DSS only [2, 7]: significantly longer
- Comparison with the DSS-treated group (colitis parameters) ([2]; low-dose, 10 μM, 100 μl per mouse, rectal, 3% DSS 7 days): no significant difference
- Necroptosis of HT-29 cells (PI staining) (HT-29 cells; TSZ-treated, pre-administrated with compound): inhibit the necroptosis

Structure (SMILES): O=C(O)c1cc(-c2ccc(C3CCNCC3)cc2)c2ccc(-c3ccc(C(F)(F)F)cc3)cc2c1 [PPTN, reference compound]
- Activation of cAMP/PKA/CREB pathway (p-PKA, p-CREB) [1]: significantly increased the level of p-PKA and p-CREB
- P-MLKL/MLKL ([1]; DSS-treated mice, Figure 7h): 1.3877 and 1.2109 and 1.586 and 1.421 and 1.9357
- P-PKA/PKA ([1]; DSS-treated mice, Figure 7h): 2.217 and 1.679 and 2.34 and 2.232 and 2.623
- p-CREB/CREB ([1]; DSS-treated mice, Figure 7h): 0.8109 and 1.08 and 1.258 and 1.076 and 0.8633
- P-MLKL/MLKL ([1]; P2Y14R△IEC mice + DSS + PPTN, individual replicates): 1.205 and 1.2332 and 1.252 and 1.224 and 1.39
- Necroptosis of IECs (p-MLKL level and TEM imaging) [1]: prominently suppression in necroptosis
- DAI ([2]; DSS-treated mice, Day 1): 0
- Weight (%) ([2]; DSS-treated mice, Day 1): 101.124% and 106.742% and 95.5056%
- Weight (%) ([2]; DSS-treated mice, Day 2): 101.124% and 106.742% and 95.5056%
- Weight (%) ([2]; DSS-treated mice, Day 3): 95.5056% and 106.742%
- Weight (%) ([2]; DSS-treated mice, Day 4): 89.8876% and 101.124% and 95.5056%
- Weight (%) ([2]; DSS-treated mice, Day 5): 89.8876% and 101.124% and 84.2697% and 95.5056%
- Weight (%) ([2]; DSS-treated mice, Day 6): 84.2697% and 95.5056% and 89.8876%
- Weight (%) ([2]; DSS-treated mice, Day 7): 89.8876% and 95.5056% and 84.2697%
- Colon length (cm) ([2]; DSS-treated mice, Figure 7c): 6.3 cm and 7.4 cm and 5.5 cm and 5.9 cm and 6.7 cm and 7.1 cm
- Colitis symptoms [2]: significantly suppressed colitis symptoms
- H&E staining: inflammatory infiltration and tissue damage ([2]; 100 μl per mouse): improved DSS-induced inflammatory infiltration and tissue damage
- Tight junction protein expression (immunofluorescence) ([2]; 100 μl per mouse): stabilized the expression of tight junction protein Claudin-1, Occludin and ZO-1
- Body weight loss and DAI vs DSS-exposed mice [2, 7]: dramatically less body weight loss and lower DAI
- Colon length vs mice treated with DSS only [2, 7]: significantly longer
- PI positive cell, PI intensity (%) (HT-29 cells; Figure 7k, TSZ-treated cells): 15.53% and 10.57% and 8.89%
